Reference: patent US9937235B2, “Lipidated peptides as anti-obesity agents” (USTAV ORGANICKE CHEMIE A BIOCHEMIE AKADEMIE VED CR, V.V.I, priority 2012, dated 2018)
Where a SMILES comes first, the peptide text is derived from it. Where no end group is shown, it is not given here. [ ]: non-standard residue; d: D form. The star is where a group is joined. 1Nal = N[C@@H](Cc1cccc2ccccc12)C(=O)O; Lauroyl = CCCCCCCCCCCC(=O)*; Nle = CCCC[C@H](N)C(=O)O; Dap = NC[C@H](N)C(=O)O

Legend:
[1] = tested on: fasted C57BL/6 mice; experiment: Food intake in fasted mice after SC administration; type: in vivo, mouse; conditions: SC administration; for % control: food intake vs saline
Procedure, shortened: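 Male C57BL/6 mice, food-deprived 17 h, received saline, PrRP or lipidated analogs either SC at 1-10 mg/kg or ICV into the third ventricle at 4 nmol/mouse.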

[2] = tested on: MAPK/ERK1/2 signaling pathway in RC-4B/C cells; experiment: MAPK/ERK1/2 signaling in RC-4B/C cells (Western blot); type: cell-based, rat; conditions: 10^−6 mol·l^−1, 5 minute incubation
Method: RC-4B/C cells, which were used to determine if lipidated PrRP20 analogs are able to initiate the MAPK/ERK1/2 signaling pathway, were grown in 6-well plates up to the optimal density of […]. Seventeen hours before sample harvest, the growth medium was replaced by a serum-free medium lacking epidermal growth factor (EGF). The respective lipidated PrRP analog was added to each well in the final concentration of 10^−6 mol·l^−1. After a 5 minute incubation at 37° C., the plate was placed on ice and each well was rinsed three times with PBS pH 7.4 (137 mmol·l^−1 NaCl, 2.7 mmol·l^−1 KCl, 8 mmol·l^−1 Na2HPO4.2H2O a 1.76 mmol·l^−1 KH2PO4) and cooled to 4° C. […] Samples were collected in at least three independent experiments.
To determine if the lipidated PrRP20 analogs initiated the MAPK/ERK1/2 signaling pathway, Western blot analysis was used. Electrophoresis was performed on 5%/12% polyacrylamide gel in the presence of SDS (SDS-PAGE) on the instrument MiniProtean 3 (BioRad, Herkules, Calif., USA). Samples that were loaded on the gel were first disintegrated by ultrasound, then heated at 100° C. for 2 minutes, and centrifuged for 5 minutes at 500×g at room temperature. […] Electrophoresis was performed at a constant voltage of 100 V for 10 minutes, or for 60 minutes at 150 V.
To show the presence of phosphorylated proteins in the samples, the proteins from the SDS-PAGE gel were transferred to the Immobilon™-P PVDF (polyvinylidene difluoride) membrane (Sigma-Aldrich, USA). The transfer was performed in blotting buffer at pH 8.3 (25 mmol·l^−1 Tris, 192 mmol·l^−1 glycine and 20% methanol) for 20 hours at 4° C. at a constant voltage of 30 V.
After the protein transfer to the PVDF membrane, the membranes were washed for 5 minutes in TBS washing buffer (20 mmol·l^−1 Tris, 140 mmol·l^−1 NaCl and 0.1% Tween-20) and then incubated for 1 hour in blocking buffer (TBS with 5% non-fat milk powder and 5 mmol·l^−1 Na3VO4 and 50 mmol·l^−1 NaF) at room temperature. Further, the membranes were washed three times for 5 minutes using the TBS washing buffer. The membranes were then incubated with the primary antibody against phospho-p44/42 MAPK(Thr202/Tyr204) (Cell Signaling Technology, Beverly, USA) which was diluted in blocking buffer at 1:1000. After the next three washes with the TBS washing buffer for 5 minutes, the membranes were incubated for 1 hour with rabbit secondary antibody labeled with peroxidase (Sigma, St. Louis, USA) which was diluted in blocking buffer at 1:12,000.
The membranes were then washed three times in TBS washing buffer for 5 minutes and then the solution Femto (Pierce SuperSignal, Thermo Fisher Scientific, Rockford, Ill., USA) was applied. The induced chemiluminiscence was detected by a CCD camera (LAS 3000, Fuji Photo Film GmBH, Düsseldorf, Germany).
To assess the initiation of signaling pathways, a densitometric analysis using the program Quantity One (BioRad, Hercules, Calif., USA) was used. For statistical evaluation of the statistically significant response of the cellular signaling, one-way ANOVA with subsequent Dunnett post-hoc test was used. Data was statistically significant at P<0.05.

[3] = target: T1, rat PrRP receptor (GPR10) in RC-4B/C cells (Rattus norvegicus, UniProt Q64121); experiment: Competitive binding to rat pituitary RC-4B/C cells; conditions: ^125I-rat PrRP31, RC-4B/C cells
T1 construct: host or cells: RC-4B/C rat pituitary cell line
T1 sequence (Q64121 1-370): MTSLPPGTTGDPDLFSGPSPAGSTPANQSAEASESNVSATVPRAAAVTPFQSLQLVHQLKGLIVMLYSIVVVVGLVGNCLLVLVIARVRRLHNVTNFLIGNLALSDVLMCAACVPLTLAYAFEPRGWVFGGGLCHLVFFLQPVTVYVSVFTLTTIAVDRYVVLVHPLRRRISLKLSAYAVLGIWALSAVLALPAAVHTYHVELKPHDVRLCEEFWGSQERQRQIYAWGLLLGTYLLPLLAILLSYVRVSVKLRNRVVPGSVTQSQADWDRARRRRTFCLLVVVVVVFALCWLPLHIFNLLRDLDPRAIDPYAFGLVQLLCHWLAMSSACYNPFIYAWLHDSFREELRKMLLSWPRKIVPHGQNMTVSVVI
Method: Competitive binding experiments were performed according to Motulsky and Neubig (Motulsky, A., et al., “Analyzing radioligand binding data,” Curr Protoc Neurosci, Chapter 7, Unit 7.5, 2002). The rat pituitary cell line RC-4B/C (ATCC, Manassas, USA) was grown on 24-well plates which had their bottom coated with polyethyleneimine. The cells were grown to the optimal density of 300-450 thousand per well. […] Plates were incubated for 60 minutes at room temperature. After incubation, the cells were solubilized in 0.1 mol/l solution of NaOH and the radioactivity bound to the cells was counted using a γ-counter. The experiments were performed in duplicate and repeated at least three times. For evaluation of competitive binding experiments, the program Graph Pad Prism Software (San Diego, Calif., USA) was used. A method of nonlinear regression assuming one-site binding was used.

[4] = tested on: fasted C57BL/6 mice; experiment: Food intake in fasted mice after ICV administration; type: in vivo; conditions: 4 nmol/mouse; for % control: food intake vs saline
Method: Male C57BL/6 mice (An Lab, Prague 4) were bred in the accredited animal facility in the Institute of Organic Chemistry and Biochemistry, Czech Academy of Sciences, Prague, at the Institute of Molecular Genetics, Prague 4, at the temperature of 22±2° C. with access to food and water ad libitum. The day/night cycle was 12/12 hours (light turned on at 6:00 am). Animals were treated according to the Animal Protection Act (Act No. 246/1992). The males were fed standard chow diet St-1 (Mlýn Kocanda, Praha, Czech Republic) which contained 66% saccharides, 25% proteins and 9% lipids with a caloric value of 3.4 kcal/g.
The food was withdrawn 17 hours prior to injection of lipidated peptide and free access to water was maintained. The administration of saline, PrRP or lipidated analogs was performed either by SC injection at doses of 1-10 mg/kg (volume 0.2 ml/mouse), or by ICV using infusion pump (cannulae were inserted into the third brain ventricle 4 days before the experiment following the procedure of Maixnerová et al. (Maixnerová et al., 2011)). The single dose of peptide was 4 nmol/mouse (5 μl/mouse).
Fifteen minutes after the lipidated peptide administration, the mice were given pre-weighed food. The food was then weighed every 30 minutes for 5-10 hours. The administration of every dose was performed at least twice and one group of mice consisted of at least 6 mice. The results were presented as % of food intake as compared with the control group injected with saline.
Statistical evaluation was performed using program Graph-Pad Prism Software (San Diego, Calif., USA), and the one-way ANOVA with a subsequent Dunnettovým post-hoc test. The difference in food intake between mice injected with saline and mice injected with the examined peptide were considered statistically significant at P<0.05.

[5] = 45 minutes, dose not stated for these substances
[6] = 300 minutes, dose not stated for these substances

Row | % of PrRP31 binding [3] [%] | Compound | food intake ([1]; 45 minutes, 10 mg/kg) [g] | % control ([1]; 45 minutes, 10 mg/kg) [%] | food intake ([1]; 300 minutes, 10 mg/kg) [g] | % control ([1]; 300 minutes, 10 mg/kg) [%] | ERK signaling [2] | food intake ([4]; 45 minutes) [g] | % control ([4]; 45 minutes) [%] | food intake ([4]; 300 minutes) [g] | % control ([4]; 300 minutes) [%] | food intake [1, 5] [g] | % control [1, 5] [%] | food intake [1, 6] [g] | % control [1, 6] [%] | food intake ([1]; 45 minutes, 5 mg/kg) [g] | % control ([1]; 45 minutes, 5 mg/kg) [%] | food intake ([1]; 300 minutes, 5 mg/kg) [g] | % control ([1]; 300 minutes, 5 mg/kg) [%]
1 | 132 | CCCC[C@H](NC(=O)[C@H](CO)NC(=O)[C@H](Cc1c[nH]cn1)NC(=O)[C@H](CCC(N)=O)NC(=O)[C@H](Cc1c[nH]cn1)NC(=O)[C@H](C)NC(=O)[C@H](CCCNC(=N)N)NC(=O)[C@@H](N)CN)C(=O)N[C@@H](CCC(=O)O)C(=O)N[C@H](C(=O)N[C@@H](CCCNC(=N)N)C(=O)N[C@H](C(=O)N1CCC[C@H]1C(=O)N[C@@H](CC(=O)O)C(=O)N[C@H](C(=O)N[C@@H](CC(N)=O)C(=O)N1CCC[C@H]1C(=O)N[C@@H](C)C(=O)N[C@@H](Cc1c[nH]c2ccccc12)C(=O)N[C@@H](Cc1ccc(O)cc1)C(=O)N[C@H](C(=O)NCC(=O)N[C@@H](CCCNC(=N)N)C(=O)NCC(=O)N[C@H](C(=O)N[C@@H](CCCNC(=N)N)C(=O)N1CCC[C@H]1C(=O)N[C@H](C(=O)NCC(=O)N[C@@H](CCCNC(=N)N)C(=O)N[C@@H](Cc1ccccc1)C(N)=O)C(C)C)[C@@H](C)CC)[C@@H](C)O)[C@@H](C)CC)[C@@H](C)O)[C@@H](C)O [Analog 1] (H-[Dap]RAHQHS[Nle]ETRTPDINPAWYTGRGIRPVGRF-NH2) | 0.38 | 117 | 1.05 | 97 | agonist | 0.39 | 70 | 0.71 | 53 |  |  |  |  |  |  |  | 
2 | 143 | TPDINPAWYTGRGIRPVGRF-NH2 [PrRP20, reference compound] |  |  |  |  | agonist | 0.32 | 68 | 1.29 | 100 | 0.32 | 100 | 1.1 | 100 |  |  |  | 
3 | 8 | CCCC[C@H](NC(=O)[C@H](CO)NC(=O)[C@H](Cc1c[nH]cn1)NC(=O)[C@H](CCC(N)=O)NC(=O)[C@H](Cc1c[nH]cn1)NC(=O)[C@H](C)NC(=O)[C@H](CCCNC(=N)N)NC(=O)[C@@H](N)CN)C(=O)N[C@@H](CCC(=O)O)C(=O)N[C@H](C(=O)N[C@@H](CCCNC(=N)N)C(=O)N[C@H](C(=O)N1CCC[C@H]1C(=O)N[C@@H](CC(=O)O)C(=O)N[C@H](C(=O)N[C@@H](CC(N)=O)C(=O)N1CCC[C@H]1C(=O)N[C@@H](C)C(=O)N[C@@H](Cc1c[nH]c2ccccc12)C(=O)N[C@@H](Cc1ccc(O)cc1)C(=O)N[C@H](C(=O)NCC(=O)N[C@@H](CCCNC(=N)N)C(=O)NCC(=O)N[C@H](C(=O)N[C@@H](CCCNC(=N)N)C(=O)N1CCC[C@H]1C(=O)N[C@H](C(=O)NCC(=O)N[C@@H](CCCNC(=N)N)C(=O)N[C@@H](Cc1cccc2ccccc12)C(N)=O)C(C)C)[C@@H](C)CC)[C@@H](C)O)[C@@H](C)CC)[C@@H](C)O)[C@@H](C)O [Analog 7] (H-[Dap]RAHQHS[Nle]ETRTPDINPAWYTGRGIRPVGR[1Nal]-NH2) | 0.16 | 49 | 0.88 | 81 | agonist |  |  |  |  |  |  |  |  |  |  |  | 
4 | 440 | CCCCCCCCCCCC(=O)NC[C@H](N)C(=O)N[C@@H](CCCNC(=N)N)C(=O)N[C@@H](C)C(=O)N[C@@H](Cc1c[nH]cn1)C(=O)N[C@@H](CCC(N)=O)C(=O)N[C@@H](Cc1c[nH]cn1)C(=O)N[C@@H](CO)C(=O)N[C@@H](CCCC)C(=O)N[C@@H](CCC(=O)O)C(=O)N[C@H](C(=O)N[C@@H](CCCNC(=N)N)C(=O)N[C@H](C(=O)N1CCC[C@H]1C(=O)N[C@@H](CC(=O)O)C(=O)N[C@H](C(=O)N[C@@H](CC(N)=O)C(=O)N1CCC[C@H]1C(=O)N[C@@H](C)C(=O)N[C@@H](Cc1c[nH]c2ccccc12)C(=O)N[C@@H](Cc1ccc(O)cc1)C(=O)N[C@H](C(=O)NCC(=O)N[C@@H](CCCNC(=N)N)C(=O)NCC(=O)N[C@H](C(=O)N[C@@H](CCCNC(=N)N)C(=O)N1CCC[C@H]1C(=O)N[C@H](C(=O)NCC(=O)N[C@@H](CCCNC(=N)N)C(=O)N[C@@H](Cc1ccccc1)C(N)=O)C(C)C)[C@@H](C)CC)[C@@H](C)O)[C@@H](C)CC)[C@@H](C)O)[C@@H](C)O [Analog 3] (H-[Dap](Lauroyl)RAHQHS[Nle]ETRTPDINPAWYTGRGIRPVGRF-NH2) |  |  |  |  | agonist |  |  |  |  |  |  |  |  | 0.12 | 50 | 0.61 | 60
